Source: the NIST ThermoML archive (doi:10.1021/je800622e)
± gives the expanded uncertainty stated by the source.

Test: mn = molality of the nth substance listed, in mol/kg
Conditions: 298.15 K, 101 kPa, Liquid; for mass density: Pycnometric method; for molar conductivity: Alternating current cell with electrodes

| SMILES | mass density (m1 = 0.02) [kg/m3] | mass density (m1 = 0.06) [kg/m3] | mass density (m1 = 0.1) [kg/m3] | mass density (m1 = 0.15) [kg/m3] | mass density (m1 = 0.2) [kg/m3] | mass density (m1 = 0.25) [kg/m3] | molar conductivity (m1 = 0.05) [S·m2/mol] | molar conductivity (m1 = 0.1) [S·m2/mol] | molar conductivity (m1 = 0.15) [S·m2/mol] | molar conductivity (m1 = 0.25) [S·m2/mol] | molar conductivity (m1 = 0.5) [S·m2/mol] | molar conductivity (m1 = 0.75) [S·m2/mol] | molar conductivity (m1 = 1) [S·m2/mol] | mass density (m1 = 0.05) [kg/m3] | mass density (m1 = 0.5) [kg/m3] | mass density (m1 = 0.75) [kg/m3] | mass density (m1 = 1) [kg/m3] |
| --- | --- | --- | --- | --- | --- | --- | --- | --- | --- | --- | --- | --- | --- | --- | --- | --- | --- |
| OC[C@H]1O[C@@](CO)(O[C@H]2O[C@H](CO)[C@@H](O)[C@H](O)[C@H]2O)[C@@H](O)[C@@H]1O [D-sucrose] + O | 999.72 ± 0.88 | 1004.87 ± 0.89 | 1009.9 ± 0.89 | 1016.06 ± 0.9 | 1022.12 ± 0.91 | 1027.95 ± 0.91 |  |  |  |  |  |  |  |  |  |  |  |
| CCCCn1cc[n+](C)c1.F[B-](F)(F)F [1-butyl-3-methylimidazolium tetrafluoroborate] + O |  |  | 1000.85 ± 0.89 | 1002.63 ± 0.9 |  | 1006.1 ± 0.9 | 0.00906 ± 0.00054 | 0.0085 ± 0.00051 | 0.008 ± 0.00048 | 0.00714 ± 0.00043 | 0.00547 ± 0.00033 | 0.00419 ± 0.00025 | 0.00389 ± 0.00023 | 999 ± 0.89 | 1014.2 ± 0.91 | 1021.57 ± 0.91 | 1028.25 ± 0.92 |
